The values below are quoted from earlier work in patent US20190298660A1, “PHOSPHATE-CROSSLINKED STARCH NANOPARTICLES AND USE FOR DRUG DELIVERY” (GreenMark Biomedical Inc., priority 2018, published 2019).

Usually pKa stands for the negative logarithm of the acid dissociation constant. Take `COc1cccc2c1C(=O)c1c(O)c3c(c(O)c1C2=O)C[C@@](O)(C(=O)CO)C[C@@H]3O[C@H]1C[C@H](N)[C@H](O)[C@H](C)O1` [doxorubicin]: the pKa is given as 9.53.
